In patent publication US20200392116A1, “SUBSTITUTED HETEROCYCLES AS c-MYC TARGETING AGENTS” (NORTHWESTERN UNIVERSITY, priority 2019, published 2020):

Assay: Potency code of Table 2 (assay not stated)

Row | Compound | Potency code
1 | COc1cccc(-c2c(-c3ccc(OCc4ccc(Cl)cc4)cc3O)nn(C)c2C)c1 [NUCC-0198314] | + (>40 +)
2 | Cn1nc(-c2ccc(OCCCNC(=O)OC(C)(C)C)c(-c3cncc(C(F)(F)F)c3)c2O)cc1C(F)(F)F [NUCC-0201656] | + (>40 +)
3 | CCc1ccc(Oc2c(-c3ccc(OCc4ccc(OC)cc4)cc3O)n[nH]c2C(F)(F)F)cc1 [NUCC-0196359] | + (>40 +)
4 | Cc1[nH]nc(-c2ccc(OCc3ccc(Cl)cc3)cc2O)c1Oc1ccccc1 [NUCC-0176253] | + (>40 +)
5 | Cn1nc(-c2ccc(OCc3ccc(Cl)cc3)c(Br)c2O)cc1C(F)(F)F [NUCC-0198408] | + (>40 +)
6 | Cn1nc(C(F)(F)F)cc1-c1ccc(OCc2ccc(Cl)cc2)c(-c2ccc(F)c(C(F)(F)F)c2)c1O [NUCC-0200735] | + (>40 +)
7 | COc1ccc(-c2cc(C(F)(F)F)n(C)n2)c(O)c1-c1cc(C(F)(F)F)cc(C(F)(F)F)c1 [NUCC-0201221] | + (>40 +)
8 | Cn1cc(-c2ccc(OCc3ccc(Cl)cc3)cc2CO)c(C(F)(F)F)n1 [NUCC-0200813] | + (>40 +)
9 | Oc1c(-c2cc(C(F)(F)F)[nH]n2)ccc(OCc2ccc(Cl)cc2)c1-c1cc(C(F)(F)F)cc(C(F)(F)F)c1 [NUCC-0196362] | ++ (30-40 ++)
10 | Oc1cc(Nc2ccc(Cl)cc2)ccc1-c1cc(C(F)(F)F)[nH]n1 [NUCC-0200491] | ++++ (<10 ++++)
11 | Cc1ccc(C)c(Oc2cn(C)nc2-c2ccc(OCc3ccc(Cl)cc3)cc2O)c1 [NUCC-0196285] | + (>40 +)
12 | Cn1nc(-c2ccc(OCc3ccc(Cl)cc3)c(-c3cccc(C#N)c3)c2O)cc1C(F)(F)F [NUCC-0198400] | + (>40 +)
13 | Cn1nc(-c2ccc(Nc3ccc4c(c3)OCO4)cc2O)cc1C(F)(F)F [NUCC-0200562] | + (>40 +)
14 | Cn1cc(-c2ccc(OCc3ccc(Cl)cc3)cc2F)c(C(F)(F)F)n1 [NUCC-0200743] | + (>40 +)
15 | Cc1cc(C)c(-c2cn(C)nc2-c2ccc(OCc3ccc(Cl)cc3)cc2O)c(C)c1 [NUCC-0198360] | + (>40 +)
16 | CCc1nn(C)c(-c2ccc(OCc3ccc(Cl)cc3)cc2O)c1-c1ccccc1 [NUCC-0198302] | + (>40 +)
17 | CCCCOc1ccc(-c2cc(C(F)(F)F)n(C)n2)c(O)c1-c1cc(C(F)(F)F)cc(C(F)(F)F)c1 [NUCC-0201652] | + (>40 +)
18 | Oc1c(-c2cc(C(F)(F)F)[nH]n2)ccc(OCc2ccc(Cl)cc2)c1-c1ccc(F)cc1 [NUCC-0196347] | + (>40 +)
19 | COc1cccc(-c2cn(C)nc2-c2ccc(OCc3ccc(Cl)cc3)cc2O)c1 [NUCC-0198326] | + (>40 +)
20 | CCc1ccc(Oc2c(-c3ccc(OCc4ccc(Cl)cc4)cc3)nn(C)c2C(F)(F)F)cc1 [NUCC-0196353] | + (>40 +)
21 | Cn1nc(-c2ccc(Nc3ccc(NC=O)cc3)cc2O)cc1C(F)(F)F [NUCC-0200564] | + (>40 +)
22 | Cn1nc(-c2ccc(OCc3ccc(Cl)cc3)c(-c3cccc(C(F)(F)F)c3)c2O)cc1C(F)(F)F [NUCC-0200731] | + (>40 +)
23 | Oc1c(-c2cc(C(F)(F)F)[nH]n2)ccc(OCc2ccc(Cl)cc2)c1-c1ccc(C(F)(F)F)c(Cl)c1 [NUCC-0200728] | + (>40 +)

Row | Compound | Potency code
24 | CC(C)CCOc1ccc(-c2cc(C(F)(F)F)n(C)n2)c(O)c1-c1cncc(C#N)c1 [NUCC-0201213] | ++++ (<10 ++++)
25 | CCOC(=O)c1cc(-c2ccc(OCc3ccc(Cl)cc3)c(-c3ccc(C#N)cc3)c2O)n[nH]1 [NUCC-0200489] | + (>40 +)
26 | COc1ccc(-c2c(C)nn(C)c2-c2ccc(OCc3ccc(Cl)cc3)cc2O)cc1 [NUCC-0198306] | + (>40 +)
27 | CCCCOc1ccc(-c2cc(C(F)(F)F)n(C)n2)c(O)c1-c1ccc(Cl)c(C(F)(F)F)c1 [NUCC-0201227] | ++++ (<10 ++++)
28 | COc1cccc(-c2c[nH]nc2-c2ccc(OCc3ccc(Cl)cc3)cc2O)c1 [NUCC-0198308] | + (>40 +)
29 | CCc1ccc(Oc2c(-c3ccc(Nc4ccc(Cl)cc4)cc3O)n[nH]c2C(F)(F)F)cc1 [NUCC-0200680] | + (>40 +)
30 | Oc1cc(Nc2ccc(-n3ccnc3)cc2)ccc1-c1cc(C(F)(F)F)[nH]n1 [NUCC-0200569] | + (>40 +)
31 | Cn1nc(-c2ccc(OCc3ccc(Cl)cc3)c(-c3ccc(C#N)cc3)c2O)cc1C(F)(F)F [NUCC-0198393] | + (>40 +)
32 | CCc1ccc(Oc2c(-c3ccc(OCCc4ccc(Cl)cc4)cc3O)n[nH]c2C(F)(F)F)cc1 [NUCC-0196357] | +++ (10-30 +++)
33 | Cc1[nH]nc(-c2ccc(OCc3cnn(C)c3)cc2O)c1Oc1ccccc1 [NUCC-0176249] | + (>40 +)
34 | Oc1c(-c2cc(C(F)(F)F)[nH]n2)ccc(OCc2ccc(Cl)cc2)c1Cc1ccccc1Cl [NUCC-0200490] | + (>40 +)
35 | COc1ccc(CCOc2ccc(-c3cc(C(F)(F)F)nn3C)c(O)c2-c2cc(C(F)(F)F)cc(C(F)(F)F)c2)cc1 [NUCC-0201028] | + (>40 +)
36 | CS(=O)(=O)c1cccc(-c2c(OCc3ccc(Cl)cc3)ccc(-c3cc(C(F)(F)F)n[nH]3)c2O)c1 [NUCC-0201036] | ++ (30-40 ++)
37 | COc1cccc(-c2c(-c3ccc(OCc4ccc(Cl)cc4)cc3O)n[nH]c2C)c1 [NUCC-0198312] | + (>40 +)
38 | Nc1ccc(-c2cc(C(F)(F)F)[nH]n2)c(O)c1 [NUCC-0200497] | + (>40 +)
39 | CCc1ccc(Oc2c[nH]nc2-c2ccc(OCC3CCCCC3)cc2O)cc1 [NUCC-0176256] | + (>40 +)
40 | NC(=O)c1cccc(-c2c(OCc3ccc(Cl)cc3)ccc(-c3cc(C(F)(F)F)[nH]n3)c2O)c1 [NUCC-0198401] | + (>40 +)
41 | Oc1c(-c2cc(C(F)(F)F)n[nH]2)ccc(OCc2ccc(Cl)cc2)c1-c1cncc(F)c1 [NUCC-0201040] | +++ (10-30 +++)
42 | COc1ccccc1-c1c[nH]nc1-c1ccc(OCc2ccc(Cl)cc2)cc1O [NUCC-0198357] | + (>40 +)
43 | CCc1ccc(Oc2c[nH]nc2-c2ccc(OCc3ccc(F)cc3)cc2O)cc1 [NUCC-0176257] | + (>40 +)
44 | CN/N=C(/C)c1ccc(-c2c(OCc3ccc(Cl)cc3)ccc(-c3cc(C(F)(F)F)[nH]n3)c2O)cc1 [NUCC-0198395] | + (>40 +)
45 | Cn1nc(C(F)(F)F)cc1-c1cnc(O)cn1 [NUCC-0200689] | + (>40 +)
46 | Oc1ccc(-c2cc(C(F)(F)F)[nH]n2)c(O)c1-c1cc(C(F)(F)F)cc(C(F)(F)F)c1 [NUCC-0200495] | ++++ (<10 ++++)

Row | Compound | Potency code
47 | CCc1[nH]nc(-c2ccc(OCc3ccc(Cl)cc3)cc2O)c1-c1ccccc1 [NUCC-0198301] | + (>40 +)
48 | N#Cc1ccc(COc2ccc(-c3cc(C(F)(F)F)[nH]n3)c(O)c2-c2ccc(Cl)c(C(F)(F)F)c2)cc1 [NUCC-0201911] | + (>40 +)
49 | C#CCC(N=[N+]=[N-])C(=O)NCCCOc1ccc(-c2cc(C(F)(F)F)nn2C)c(O)c1-c1cncc(C(F)(F)F)c1 (stereo not drawn) [NUCC-0201696] | ++ (30-40 ++)
50 | C#CCC(N=[N+]=[N-])C(=O)NCCOc1ccc(-c2cc(C(F)(F)F)n[nH]2)c(O)c1-c1cncc(C(F)(F)F)c1 (stereo not drawn) [NUCC-0201697] | + (>40 +)
51 | Cn1nc(-c2ccc(OCCc3ccc(Cl)cc3)c(-c3cc(C(F)(F)F)cc(C(F)(F)F)c3)c2O)cc1C(F)(F)F [NUCC-0201026] | + (>40 +)
52 | Cn1nc(-c2ccc(OCc3ccc(Cl)cc3)c(-c3cc(C(F)(F)F)cc(C(F)(F)F)c3)c2O)cc1C(F)(F)F [NUCC-0196360] | + (>40 +)
53 | CN/N=C(\C)c1cccc(-c2c(OCc3ccc(Cl)cc3)ccc(-c3cc(C(F)(F)F)nn3C)c2O)c1 [NUCC-0198404] | + (>40 +)
54 | Cn1nc(C(F)(F)F)cc1-c1ccc(OCc2ccc(Cl)cc2)cc1O [NUCC-0198412] | + (>40 +)
55 | Cc1ccc(-c2c(C(F)(F)F)n[nH]c2-c2cc(OCc3ccc(Cl)cc3)ccc2O)cc1 [NUCC-0200572] | + (>40 +)
56 | Cn1nc(C(F)(F)F)cc1-c1ccc(OCc2ccc(Cl)cc2)c(-c2cccc(C(N)=O)c2)c1O [NUCC-0198402] | + (>40 +)
57 | Cn1nc(-c2ccc(OCc3ccc(Cl)cc3)cc2O)cc1C(F)(F)F [NUCC-0196314.2] | + (>40 +)
58 | Oc1cc(Nc2ccc3c(c2)OCO3)ccc1-c1cc(C(F)(F)F)[nH]n1 [NUCC-0200561] | + (>40 +)
59 | Cc1ccc(-c2cn(C)nc2-c2ccc(OCc3ccc(Cl)cc3)cc2O)cc1 [NUCC-0196346] | + (>40 +)
60 | O=C(CCc1cn(CCOCCOCCOCC(=O)Nc2cccc3c2C(=O)N(C2CCC(=O)NC2=O)C3=O)nn1)NCCOc1ccc(-c2cc(C(F)(F)F)n[nH]2)c(O)c1-c1cncc(C(F)(F)F)c1 (stereo not drawn) [NUCC-0201660] | + (>40 +)
61 | COc1cccc(COc2ccc(-c3n[nH]cc3Oc3cc(C)ccc3C)c(O)c2)c1 [NUCC-0196288] | + (>40 +)
62 | Cn1nc(-c2ccc(OCc3ccc(Cl)cc3)c(-c3ccc(Cl)c(C(F)(F)F)c3)c2O)cc1C(F)(F)F [NUCC-0200733] | + (>40 +)
63 | Oc1cc(OCc2ccc(Cl)cc2)ccc1-c1cc(C(F)(F)F)nc(-c2ccc(F)cc2)n1 [NUCC-0200503] | + (>40 +)
64 | CCOc1ncc(C(F)(F)F)cc1-c1c(OCc2ccc(Cl)cc2)ccc(-c2cc(C(F)(F)F)n[nH]2)c1O [NUCC-0201039] | +++ (10-30 +++)
65 | Cn1nc(-c2ccc(OCc3ccc([N+](=O)[O-])cc3)c(-c3cc(C(F)(F)F)cc(C(F)(F)F)c3)c2O)cc1C(F)(F)F [NUCC-0201649] | + (>40 +)
66 | Cn1nc(C(F)(F)F)cc1-c1ccc(OCc2ccc(Cl)cc2)c(Br)c1O [NUCC-0198407] | +++ (10-30 +++)
67 | Cn1nc(C(F)(F)F)cc1-c1ccc(OCc2ccc(Cl)cc2)c(-c2cncc(C(F)(F)F)c2)c1O [NUCC-0201630] | + (>40 +)
68 | Cn1nc(-c2ccc(OCc3ccc(Cl)cc3)c(-c3ccc(F)c(C(F)(F)F)c3)c2O)cc1C(F)(F)F [NUCC-0200736] | + (>40 +)
69 | Nc1ccc(COc2ccc(-c3cc(C(F)(F)F)n[nH]3)c(O)c2-c2cc(C(F)(F)F)cc(C(F)(F)F)c2)cc1 [NUCC-0201201] | ++++ (<10 ++++)
